# Experimental data reported in PubChem BioAssay (NCI).
#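 In this assay, cells in 96-well plates receive the compound at five concentrations for 48 hours. Endpoints are linearly interpolated between the surrounding concentrations. At the GI50, growth is halved. Definition used: TGI = concentration required for complete inhibition of growth.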
# Tests used:
# Assay in all cases: inhibition of tumour cell growth, NCI panel, 48 h
# [1] = system: RPMI-8226 leukemia
# [2] = system: UACC-62 melanoma
# [3] = system: T-47D breast
# [4] = system: EKVX NSCLC
# [5] = system: A498 renal
# [6] = system: NCI/ADR-RES ovarian
# [7] = system: MDA-MB-231 breast
# [8] = system: SW-620 colon
# [9] = system: HT29 colon
# [10] = system: HOP-92 NSCLC
Structure (SMILES),GI50 [1] [µM],TGI [1] [µM],GI50 [2] [µM],TGI [2] [µM],GI50 [3] [µM],TGI [3] [µM],GI50 [4] [µM],TGI [4] [µM],GI50 [5] [µM],TGI [5] [µM],GI50 [6] [µM],TGI [6] [µM],GI50 [7] [µM],TGI [7] [µM],GI50 [8] [µM],TGI [8] [µM],GI50 [9] [µM],TGI [9] [µM],GI50 [10] [µM],TGI [10] [µM]
O=S(=O)(NC1=NCCN1C(=S)SN1CCn2c1nsc2=S)c1cccc2ccccc12,3.7,67.8,21,71.6,20.2,> 100,25.8,> 100,29.5,78,45.5,> 100,14.7,32.5,33.2,> 100,31.4,> 100,–,–
O=C(/C=C/C12c3ccccc3C(c3ccccc31)C1C(=O)NC(=O)C12)c1ccc(Cl)cc1Cl (stereo not given),1.68,4.41,1.67,3.18,2.48,9.59,1.86,4.16,1.82,3.3,–,–,2.31,5.82,2.19,4.58,2.02,4.41,1.5,3.3
CCc1ccc(NC(=O)NC(=O)c2ccccc2[N+](=O)[O-])cc1Oc1ncc(Cl)cn1,–,> 4.64,–,> 100,–,–,–,> 100,–,9.1,–,–,–,52.3,–,> 100,–,0.854,–,> 100
C/C=C(/I)CBr,–,39.2,–,29.5,–,–,–,49,–,–,–,–,–,–,–,36.6,–,–,–,29.2
OCc1ccc(N2CCc3cccc(F)c3C2)cc1Cl,–,20.5,–,–,–,–,–,–,< 0.0145,0.0405,7.68,37.1,13.4,43.5,< 0.0209,> 79.7,0.0334,35.5,0.0873,14.2
COc1ccc(/C=C/C(=O)/C=C/c2cc3ccccc3[nH]c2=O)cc1,1.77,5.02,2.43,9.41,3.34,12.4,–,–,5.73,18.8,20.5,> 100,2.87,10.9,1.89,4.56,2.47,5.94,–,–
CC1=Nc2c(ccc3c2C(=O)c2ccccc2C3=O)NC(c2cccc3c2CCC3)C1 (stereo not given),–,> 100,–,> 100,–,–,–,> 100,–,> 100,–,–,–,–,–,> 100,–,> 100,–,> 100
Cc1ccccc1NC(=O)c1cc(-c2ccc([N+](=O)[O-])cc2)nc(=S)[nH]1,–,–,–,> 100,–,–,–,> 100,–,–,–,–,–,–,–,> 100,–,> 100,–,> 100
CCOC(=O)C(=O)Nc1ccccc1C,–,> 100,–,> 100,–,–,–,> 100,–,> 100,–,–,–,–,–,> 100,–,–,–,> 100
COc1ccc(OC)c(NC(=O)CCC/C(CC(=O)c2ccc(O)c(OC)c2)=N\Nc2nnc(C)n2N)c1,–,> 100,–,> 100,–,–,–,> 100,–,> 100,–,–,–,–,–,> 100,–,> 100,–,> 100
N#Cc1ccccc1C(Cl)(Cl)c1cnccn1,–,–,–,> 100,–,–,–,> 100,–,> 100,–,–,–,–,–,> 100,–,> 100,–,65.4
CC(C)(C)c1cc(C(O)(C(F)(F)F)C(F)(F)F)c2c(c1)C(C(F)(F)F)(C(F)(F)F)OC(C)(C(C)(C)C)N2 (stereo not given),–,9.25,–,15,–,–,–,22.4,–,–,–,–,–,–,–,44.6,–,22.7,–,–
O=C1c2ccccc2-[n+]2ccc3c([nH]c4ccccc43)c21,–,0.468,–,0.699,–,3.52,–,1.6,–,3.15,–,4.61,–,–,–,2.72,–,1.78,–,–
O=C(O)c1ccc(NCn2nc(-c3ccccc3O)oc2=S)cc1,> 100,> 100,34.1,97.7,> 100,> 100,> 100,> 100,–,–,62.7,> 100,16.1,58.5,38.9,> 100,38.6,> 100,33.8,82.6
COC(=O)/C=C(C)/C=C/C1OC(C)OCC1O (stereo not given),–,> 100,–,> 100,–,–,–,> 100,–,> 100,–,–,–,–,–,> 100,–,> 100,–,> 100
COc1ccc(NC(=O)/C(=C/c2ccccc2)C(C)=O)cc1,–,24.8,–,22.3,–,–,–,49.4,–,36.7,–,–,–,–,–,35.1,–,28.5,–,29.6
CCOC(=O)C(Cc1c[nH]c2c(N(CCO)CCO)cccc12)(NC(C)=O)C(=O)OCC,–,–,263,> 1000,396,> 1000,> 1000,> 1000,–,–,> 1000,> 1000,692,> 1000,431,> 1000,140,417,> 1000,> 1000
CC(Oc1ccc2c(-c3ccccc3)cc(=O)oc2c1)C(=O)O (stereo not given),–,–,–,> 100,–,–,–,> 100,–,> 100,–,–,–,–,–,> 100,–,> 100,–,> 100
COc1ccc2c(=O)cc(-c3ccccc3)[nH]c2c1,0.564,> 58.4,0.431,> 100,–,–,2.25,> 100,0.263,5.32,0.547,6.15,1.92,> 100,0.444,> 100,0.379,> 100,0.378,> 100
O=C(Cc1nc2ccccc2c(=O)n1-c1ccccc1Cl)c1ccncc1,–,–,–,> 100,–,–,–,> 100,–,> 100,–,–,–,–,–,> 100,–,> 100,–,> 100
